This data set relates to CCRIS mutagenicity, Ames/micronucleus/aberration tests. The data set is described as follows: CCRIS mutagenicity studies.
Where [1] appears, read: Test System: AMES SALMONELLA TYPHIMURIUM, Strain/Indicator: TA97, Metabolic Activation: NONE, Method: PREINCUBATION
[2] abbreviates: Test System: AMES SALMONELLA TYPHIMURIUM, Strain/Indicator: TA98, Metabolic Activation: HAMSTER, LIVER, S-9, AROCLOR 1254 (10%), Method: PREINCUBATION
The mark [3] stands for this setting: Test System: AMES SALMONELLA TYPHIMURIUM, Strain/Indicator: TA98, Metabolic Activation: HAMSTER, LIVER, S-9, AROCLOR 1254 (30%), Method: PREINCUBATION
Setting [4] is: Test System: AMES SALMONELLA TYPHIMURIUM, Strain/Indicator: TA98, Metabolic Activation: NONE, Method: PREINCUBATION
Where [5] appears, read: Test System: AMES SALMONELLA TYPHIMURIUM, Strain/Indicator: TA98, Metabolic Activation: RAT, LIVER, S-9, AROCLOR 1254 (10%), Method: PREINCUBATION
Where [6] appears, read: Test System: AMES SALMONELLA TYPHIMURIUM, Strain/Indicator: TA98, Metabolic Activation: RAT, LIVER, S-9, AROCLOR 1254 (30%), Method: PREINCUBATION
Where [7] appears, read: Test System: AMES SALMONELLA TYPHIMURIUM, Strain/Indicator: TA100, Metabolic Activation: HAMSTER, LIVER, S-9, AROCLOR 1254 (10%), Method: PREINCUBATION
Setting [8] is: Test System: AMES SALMONELLA TYPHIMURIUM, Strain/Indicator: TA100, Metabolic Activation: HAMSTER, LIVER, S-9, AROCLOR 1254 (30%), Method: PREINCUBATION
Where [9] appears, read: Test System: AMES SALMONELLA TYPHIMURIUM, Strain/Indicator: TA100, Metabolic Activation: NONE, Method: PREINCUBATION
Setting [10] is: Test System: AMES SALMONELLA TYPHIMURIUM, Strain/Indicator: TA100, Metabolic Activation: RAT, LIVER, S-9, AROCLOR 1254 (10%), Method: PREINCUBATION
Where [11] appears, read: Test System: AMES SALMONELLA TYPHIMURIUM, Strain/Indicator: TA100, Metabolic Activation: RAT, LIVER, S-9, AROCLOR 1254 (30%), Method: PREINCUBATION
Where [12] appears, read: Test System: AMES SALMONELLA TYPHIMURIUM, Strain/Indicator: TA1535, Metabolic Activation: HAMSTER, LIVER, S-9, AROCLOR 1254 (10%), Method: PREINCUBATION
Setting [13] is: Test System: AMES SALMONELLA TYPHIMURIUM, Strain/Indicator: TA1535, Metabolic Activation: HAMSTER, LIVER, S-9, AROCLOR 1254 (30%), Method: PREINCUBATION
Setting [14] is: Test System: AMES SALMONELLA TYPHIMURIUM, Strain/Indicator: TA1535, Metabolic Activation: NONE, Method: PREINCUBATION
[15] abbreviates: Test System: AMES SALMONELLA TYPHIMURIUM, Strain/Indicator: TA1535, Metabolic Activation: RAT, LIVER, S-9, AROCLOR 1254 (10%), Method: PREINCUBATION
Where [16] appears, read: Test System: AMES SALMONELLA TYPHIMURIUM, Strain/Indicator: TA1535, Metabolic Activation: RAT, LIVER, S-9, AROCLOR 1254 (30%), Method: PREINCUBATION

Molecules are shown by their SMILES. Calls of active or inactive are those of the source. No rule for the calls is given here.

As to `CCCCCCCCOc1ccc(C(=O)O)cc1`, the mutagenic call runs as follows: (Test System: AMES SALMONELLA TYPHIMURIUM, Strain/Indicator: TA97, Metabolic Activation: HAMSTER, LIVER, S-9, AROCLOR 1254 (10%), Method: PREINCUBATION) “inactive; negative”; (Test System: AMES SALMONELLA TYPHIMURIUM, Strain/Indicator: TA97, Metabolic Activation: HAMSTER, LIVER, S-9, AROCLOR 1254 (30%), Method: PREINCUBATION) “inactive; negative”; under setting [1], “inactive; negative”; (Test System: AMES SALMONELLA TYPHIMURIUM, Strain/Indicator: TA97, Metabolic Activation: RAT, LIVER, S-9, AROCLOR 1254 (10%), Method: PREINCUBATION) “inactive; negative”; (Test System: AMES SALMONELLA TYPHIMURIUM, Strain/Indicator: TA97, Metabolic Activation: RAT, LIVER, S-9, AROCLOR 1254 (30%), Method: PREINCUBATION) “inactive; negative”; under setting [2], “inactive; negative”. For the same compound, the mutagenic call is “inactive; negative” under setting [3]; “inactive; negative” under setting [4]; “inactive; negative” under setting [5]; “inactive; negative” under setting [6]; “inactive; negative” under setting [7]; “inactive; negative” under setting [8]. Moreover, the mutagenic call is, setting by setting: under setting [9], “inactive; negative”; under setting [10], “inactive; negative”; under setting [11], “inactive; negative”; under setting [12], “inactive; negative”; under setting [13], “inactive; negative”; under setting [14], “inactive; negative”. Further, the mutagenic call reads like this: under setting [15], “inactive; negative”; under setting [16], “inactive; negative”.
`CC(CN1c2ccccc2Sc2ccccc21)N(C)C` (stereo not given): the mutagenic call by setting is: (End Point: IN VITRO CHROMOSOMAL ABERRATIONS, Test System: CHINESE HAMSTER OVARY CELLS, Metabolic Activation: NONE) “inactive; negative”; (End Point: IN VITRO CHROMOSOMAL ABERRATIONS, Test System: CHINESE HAMSTER OVARY CELLS, Metabolic Activation: RAT, LIVER, S-9, AROCLOR 1254) “inactive; negative”; (Test System: AMES SALMONELLA TYPHIMURIUM, Strain/Indicator: TA97, Metabolic Activation: HAMSTER, LIVER, S-9, AROCLOR 1254 (10 OR 30%), Method: PREINCUBATION) “inactive; negative”; under setting [1], “inactive; negative”; (Test System: AMES SALMONELLA TYPHIMURIUM, Strain/Indicator: TA97, Metabolic Activation: RAT, LIVER, S-9, AROCLOR 1254 (10 OR 30%), Method: PREINCUBATION) “inactive; negative”; under setting [2], “inactive; negative”. For the same compound, the mutagenic call is, setting by setting: under setting [3], “inactive; negative”; under setting [4], “inactive; negative”; (Test System: AMES SALMONELLA TYPHIMURIUM, Strain/Indicator: TA98, Metabolic Activation: NONE, Method: SPOT TEST) “inactive; negative”; under setting [5], “inactive; negative”; under setting [6], “inactive; negative”; under setting [7], “inactive; negative”. The mutagenic call was “inactive; negative” under setting [8]; “inactive; negative” under setting [9]; “inactive; negative” under setting [10]; “inactive; negative” under setting [11]; “inactive; negative” under setting [12]; “inactive; negative” under setting [13]. The mutagenic call by setting is: under setting [14], “inactive; negative”; under setting [15], “inactive; negative”; under setting [16], “inactive; negative”; (Test System: AMES SALMONELLA TYPHIMURIUM, Strain/Indicator: TA1537, Metabolic Activation: HAMSTER, LIVER, S-9, AROCLOR 1254 (10%), Method: PREINCUBATION) “inactive; negative”; (Test System: AMES SALMONELLA TYPHIMURIUM, Strain/Indicator: TA1537, Metabolic Activation: NONE, Method: PREINCUBATION) “inactive; negative”; (Test System: AMES SALMONELLA TYPHIMURIUM, Strain/Indicator: TA1537, Metabolic Activation: RAT, LIVER, S-9, AROCLOR 1254 (10%), Method: PREINCUBATION) “inactive; negative”. The mutagenic call was “inactive; negative” (Test System: CHINESE HAMSTER V-79, Strain/Indicator: V-79/6-THIOGUANINE, Metabolic Activation: NONE) and “inactive; negative” (Test System: CHINESE HAMSTER V-79, Strain/Indicator: V-79/OUABAIN, Metabolic Activation: NONE).
Consider `CC(=O)[C@]1(O)Cc2c(O)c3c(c(O)c2[C@@H](O[C@H]2C[C@H](N)[C@H](O)[C@H](C)O2)C1)C(=O)c1c(O)cccc1C3=O`, for which the mutagenic call is “active; positive” (Test System: AMES SALMONELLA TYPHIMURIUM, Strain/Indicator: GW257, Metabolic Activation: NONE, Method: STANDARD PLATE); “active; positive” (Test System: AMES SALMONELLA TYPHIMURIUM, Strain/Indicator: TA97, Metabolic Activation: NONE, Method: STANDARD PLATE); “active; positive” under setting [4]; “active; positive” (Test System: AMES SALMONELLA TYPHIMURIUM, Strain/Indicator: TA98, Metabolic Activation: NONE, Method: STANDARD PLATE); “active; positive” (Test System: AMES SALMONELLA TYPHIMURIUM, Strain/Indicator: TA98, Metabolic Activation: RAT, LIVER, S-9, AROCLOR 1254, Method: STANDARD PLATE); “active; positive” (Test System: AMES SALMONELLA TYPHIMURIUM, Strain/Indicator: TA100, Metabolic Activation: NONE, Method: STANDARD PLATE). Besides, the mutagenic call reads like this: (Test System: AMES SALMONELLA TYPHIMURIUM, Strain/Indicator: TA104, Metabolic Activation: NONE, Method: STANDARD PLATE) “inactive; negative”; (Test System: AMES SALMONELLA TYPHIMURIUM, Strain/Indicator: TA1538, Metabolic Activation: NONE, Method: STANDARD PLATE) “active; positive”; (Test System: AMES SALMONELLA TYPHIMURIUM, Strain/Indicator: TA2637, Metabolic Activation: NONE, Method: STANDARD PLATE) “active; positive”.
